Measurements as given in ChEMBL document CHEMBL3097993, “Synthesis and initial biological evaluation of new mimics of the LXR-modulator 22(S)-hydroxycholesterol” (2014).
Active and inactive are the calls of the source. The rule behind the calls is not given here.

Key:
Homo sapiens [1] = organism: Homo sapiens; assay: Induction of lipogenesis in human myotubes at 1 uM after 4 days by scintillation counting analysis in presence of [1-14C]acetate; type: functional
[2] = (§1) Induction of lipogenesis in human myotubes at 10 uM after 4 days by scintillation counting analysis in presence of [1-14C]acetate relative to control; type: functional
[3] = molecular target: T1, Liver X receptor (Homo sapiens) (UniProt Q13133+P55055); assay: Agonist activity at LXR in human myotubes assessed as upregulation of SCD1 expression at 10 uM after 4 days by qPCR analysis
Homo sapiens [4] = organism: Homo sapiens; assay: as §1; type: functional
Homo sapiens [5] = organism: Homo sapiens; assay: Inhibition of tularic-induced lipogenesis in human myotubes at 10 uM after 4 days by scintillation counting analysis in presence of [1-14C]acetate relative to control; type: functional
[6] = molecular target: T1, Liver X receptor (Homo sapiens); assay: Antagonist activity at LXR in human myotubes assessed as downregulation of SCD1 expression at 10 uM after 4 days by qPCR analysis

O=S(=O)(c1ccccc1)N(CC(F)(F)F)c1ccc(C(O)(C(F)(F)F)C(F)(F)F)cc1
Activity (Homo sapiens [1]): Active

CC(C)CC[C@H](O)[C@@H](C)COCc1ccc(S(=O)(=O)N2CCCC2)cc1
fold change (FC) [2]: 2
Activity [3]: Active

CC(C)CC[C@H](O)[C@@H](C)[C@H]1CC[C@H]2[C@@H]3CC=C4C[C@@H](O)CC[C@]4(C)[C@H]3CC[C@]12C
Activity (Homo sapiens [4]): inactive
inhibition (Homo sapiens [5]): Active
Activity [6]: Active
